Data on 16 compounds can be found in article PMC8040948 (Journal of medicinal chemistry, 2020).

≈ marks a conversion by molar mass, not a printed value. Entries after “also recorded” stand apart in the source; their conditions may differ. Read-outs that look alike come from different tables or passages of the source.

Data set [1] concerns CCI of the sciatic nerve in adult male ICR mice. The following applies: mouse, 10 μmol/kg, ip; ref Mufti et al.[12]; cited from earlier work.
The target of a further data set is T1, mP2Y14R (Mus musculus, UniProt Q9ESG6).
T1 sequence (Q9ESG6 1-338): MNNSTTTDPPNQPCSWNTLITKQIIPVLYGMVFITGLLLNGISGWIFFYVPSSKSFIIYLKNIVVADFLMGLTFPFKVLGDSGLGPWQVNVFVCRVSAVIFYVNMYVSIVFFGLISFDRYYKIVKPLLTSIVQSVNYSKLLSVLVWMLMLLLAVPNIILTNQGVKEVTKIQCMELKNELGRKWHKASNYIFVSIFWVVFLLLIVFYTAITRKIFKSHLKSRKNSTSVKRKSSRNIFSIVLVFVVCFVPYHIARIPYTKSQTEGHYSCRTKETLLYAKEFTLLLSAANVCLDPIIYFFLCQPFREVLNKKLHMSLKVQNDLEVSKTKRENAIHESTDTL
To be noted: mP2Y14R-expressing HEK293 cells, 1 μM, fluorescence micrographs; ref [12]; cited from earlier work.

A short description of data set [2]: Observed solubility in water, DMSO or aqueous DMSO. The following applies: for solubility in DMSO at 1 mM: as a zwitterion, 1 mM in DMSO.
In the next data set the target is CB1 cannabinoid receptor (Homo sapiens, UniProt P21554). Put plainly: PDSP functional agonist/antagonist assay, CB1. It counts as cell-based.
CB1 cannabinoid receptor, sequence (P21554 whole entry): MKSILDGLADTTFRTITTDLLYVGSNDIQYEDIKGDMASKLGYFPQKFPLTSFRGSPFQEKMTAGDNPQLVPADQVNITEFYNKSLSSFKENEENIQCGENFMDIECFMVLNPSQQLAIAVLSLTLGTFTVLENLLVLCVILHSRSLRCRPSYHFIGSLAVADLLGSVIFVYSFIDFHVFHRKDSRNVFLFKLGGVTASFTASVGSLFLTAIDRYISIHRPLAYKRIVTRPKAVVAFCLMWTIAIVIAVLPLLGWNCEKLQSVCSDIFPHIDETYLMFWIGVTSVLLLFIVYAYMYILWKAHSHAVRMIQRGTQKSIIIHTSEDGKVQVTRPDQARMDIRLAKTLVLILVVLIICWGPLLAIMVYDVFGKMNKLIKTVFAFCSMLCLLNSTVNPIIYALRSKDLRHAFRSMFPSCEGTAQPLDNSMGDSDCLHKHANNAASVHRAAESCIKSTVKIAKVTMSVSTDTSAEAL
The subject of another data set is ASP/OVA-sensitized mice. The data set is described as follows: Ovalbumin/Aspergillus protease mouse model of allergic asthma, BALF cell counts. The following applies: 10 mg/kg ip 30 min prior to allergen challenge, BALF 2 days post-challenge.
In a further data set the target is CB2 cannabinoid receptor (Homo sapiens, UniProt P34972). The data set is described as follows: PDSP functional agonist/antagonist assay, CB2. It counts as cell-based.
CB2 cannabinoid receptor, sequence (P34972 whole entry): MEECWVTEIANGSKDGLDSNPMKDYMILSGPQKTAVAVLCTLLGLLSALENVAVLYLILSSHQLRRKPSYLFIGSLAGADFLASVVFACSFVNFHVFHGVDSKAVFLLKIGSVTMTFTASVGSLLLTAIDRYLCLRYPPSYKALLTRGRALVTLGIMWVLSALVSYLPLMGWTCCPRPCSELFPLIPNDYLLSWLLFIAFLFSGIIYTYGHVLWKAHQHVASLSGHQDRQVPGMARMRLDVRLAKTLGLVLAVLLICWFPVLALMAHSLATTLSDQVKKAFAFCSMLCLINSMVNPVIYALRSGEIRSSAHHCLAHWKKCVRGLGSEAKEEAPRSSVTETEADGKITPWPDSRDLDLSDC
Data set [3] relates to 46 receptors, transporters, and ion channels. The following applies: non-P2YR off-target screen; ref [8],[9]; cited from earlier work.
Another data set relates to other P2YRs. The following applies: ref [8],[17]; cited from earlier work.
Data set [4] in a line: Pharmacokinetics in the rat, ip and iv.
Data set [5] can be described thus: Aqueous solubility, pION method. The following applies: Table 5, pION method.
Data set [6] can be described thus: Plasma protein binding in three species.
Data set [7] deals with T2, hP2Y14R (Homo sapiens, UniProt Q15391).
T2 sequence (Q15391 1-338): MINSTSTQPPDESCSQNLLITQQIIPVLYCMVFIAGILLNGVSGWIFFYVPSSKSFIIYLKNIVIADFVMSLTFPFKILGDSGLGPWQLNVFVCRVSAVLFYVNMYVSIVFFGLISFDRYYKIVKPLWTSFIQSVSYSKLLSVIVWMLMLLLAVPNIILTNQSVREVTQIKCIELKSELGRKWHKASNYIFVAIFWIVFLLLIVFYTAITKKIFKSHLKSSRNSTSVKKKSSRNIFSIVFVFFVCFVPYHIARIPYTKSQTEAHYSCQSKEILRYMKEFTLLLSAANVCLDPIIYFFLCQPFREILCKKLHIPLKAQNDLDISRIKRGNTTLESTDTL
The data set is described as follows: Competitive binding assay of CHO-hP2Y14R cells at different pH levels.

Data set [8] concerns the target T2, hP2Y14R. The format is binding. To be noted: for fold lower hP2Y14R affinity than 2: relative to reference triazole 2; for fold lower hP2Y14R affinity than 22: relative to reference 22.
The target in the next data set is δ-opioid (DOR) receptor (Homo sapiens, UniProt P41143). Put plainly: PDSP off-target binding, DOR.
δ-opioid (DOR) receptor, sequence (P41143 whole entry): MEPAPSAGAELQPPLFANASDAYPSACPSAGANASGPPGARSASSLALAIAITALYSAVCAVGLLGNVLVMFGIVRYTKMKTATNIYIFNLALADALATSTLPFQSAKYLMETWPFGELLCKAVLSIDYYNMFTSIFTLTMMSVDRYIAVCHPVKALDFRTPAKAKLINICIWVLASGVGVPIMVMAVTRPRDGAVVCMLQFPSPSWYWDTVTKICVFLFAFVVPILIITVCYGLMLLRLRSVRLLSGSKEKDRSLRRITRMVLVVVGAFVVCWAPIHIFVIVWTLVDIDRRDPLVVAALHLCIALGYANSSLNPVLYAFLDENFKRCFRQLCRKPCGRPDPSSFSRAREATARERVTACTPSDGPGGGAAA

Regarding `O=C(O)c1cc(-c2ccc(C3CCNCC3)cc2)c2ccc(-c3ccc(C(F)(F)F)cc3)cc2c1` [Compound 1, 4-[4-(4-piperidinyl)-phenyl]-7-[4-(trifluoromethyl)phenyl]-2-naphthalenecarboxylic acid, reference compound], the “efficacy in CCI model” value in [1] was “effective”. Further, the “inhibition of intact cell binding of 36” value at mP2Y14R is recorded as “almost completely inhibited”. Besides, the “solubility in DMSO at 1 mM” value in data set [2] is recorded as “failed to dissolve”. In addition, the IC50 on CB1 cannabinoid receptor and at CB2 cannabinoid receptor was above 10 µM in each case. The “effect on eosinophilic airway inflammation” value (“effect” below) in the data set on ASP/OVA-sensitized mice is “protected; also recorded: strongly attenuated eosinophilic airway inflammation”.
For the compound `O=C(O)c1cc(-c2ccc(C3CCNCC3)cc2)cc(-n2cc(-c3ccc(C(F)(F)F)cc3)nn2)c1` [Compound 2, reference compound], the off-target interactions result in data set [3] was “no detected off-target interactions”. Moreover, in the data set on other P2YRs, the “activity at other P2YRs” value was “inactive”. Also, in the data set with ASP/OVA-sensitized mice, the “effect” value is “inactive”.
On to `CCCN1CCC(c2ccc(-c3cc(C(=O)O)cc4cc(-c5ccc(C(F)(F)F)cc5)ccc34)cc2)CC1` [Compound 6b, 4-(4-(1-Propylpiperidin-4-yl)phenyl)-7-(4-(trifluoromethyl)phenyl)-2-naphthoic Acid], for which, in data set [3], the off-target interactions result is reported as “no detected off-target interactions”.
Consider `C#CCCCCN1CCC(c2ccc(-c3cc(C(=O)O)cc4cc(-c5ccc(C(F)(F)F)cc5)ccc34)cc2)CC1` [Compound 7a, 4-(4-(1-(Hex-5-yn-1-yl)piperidin-4-yl)phenyl)-7-(4-(trifluoromethyl)phenyl)-2-naphthoic Acid], for which, in data set [3], the off-target interactions result is recorded as “no detected off-target interactions”. The “effect” value with ASP/OVA-sensitized mice was “protected; also recorded: highest potency of reducing eosinophil infiltration”.
As to `CC(=O)N1CCC(c2ccc(-c3cc(C(=O)O)cc4cc(-c5ccc(C(F)(F)F)cc5)ccc34)cc2)CC1` [Compound 8, 4-(4-(1-(Acetyl)piperidin-4-yl)phenyl)-7-(4-(trifluoromethyl)phenyl)-2-naphthoic Acid], in data set [1], the “efficacy in CCI model” value is reported as “effective”.
For the compound `O=C(O)c1cc(-c2ccc(C34CCN(CC3)CC4)cc2)c2ccc(-c3ccc(C(F)(F)F)cc3)cc2c1` [Compound 17, 4-(4-(Quinuclidin-4-yl)phenyl)-7-(4-(trifluoromethyl)phenyl)-2-naphthoic Acid], the “time at which maximal plasma concentration was reached” value in [4] lay in the range of 3 to 4 h. Moreover, the “plasma concentration at the 12 h time point” value in data set [4] (highest dose (10 mg/kg), 12 h) fell in the range of 200 to 400 ng/kg. The solubility (in general, the concentration that dissolves in the medium under given conditions) in [5] (pH 4, aqueous solubility (pH 4.0, μg/mL), pH 4.0, mean ± SD) is 14.3 ± 0.5 µg/mL (≈ 28.5 µM); in data set [5] (pH 7.4, aqueous solubility (pH 7.4, μg/mL), pH 7.4, mean ± SD) it was 0.44 ± 0.06 µg/mL (≈ 0.877 µM); in data set [2] it was at least 1000 µg/mL. In addition, in [6], the plasma protein binding entry was “high”. Besides, the “solubility in DMSO at 1 mM” value in [2] was “readily soluble”. Besides, the “effect” value in the data set with ASP/OVA-sensitized mice is “protected”. Moreover, at hP2Y14R [7], the IC50 (commonly the concentration that gives 50% inhibition) was 0.0308 ± 0.0022 µM.
With `O=C(O)c1cc(-c2ccc(C34CCNCC3C4)cc2)cc(-n2cc(-c3ccc(C(F)(F)F)cc3)nn2)c1` (stereo not drawn) [Compound 19, 4′-(3-Azabicyclo[4.1.0]heptan-6-yl)-5-(4-(4-(trifluoromethyl)phenyl)-1H-1,2,3-triazol-1-yl)-[1,1′-biphenyl]-3-carboxylic Acid], the “fold lower hP2Y14R affinity than 2” value at hP2Y14R [8] is recorded as 11 fold.
The same measure, in the same setting: to `O=C(O)c1cc(-c2ccc(C34CCNCC3C4(F)F)cc2)cc(-n2cc(-c3ccc(C(F)(F)F)cc3)nn2)c1` (stereo not drawn) [Compound 20, 4′-(7,7-Difluoro-3-azabicyclo[4.1.0]heptan-6-yl)-5-(4-(4-(trifluoromethyl)phenyl)-1H-1,2,3-triazol-1-yl)-[1,1′-biphenyl]-3-carboxylic Acid] belongs 20 fold.
With `C[N+]12CCC(c3ccc(-c4cc(C(=O)O)cc5cc(-c6ccc(C(F)(F)F)cc6)ccc45)cc3)(CC1)CC2` [Compound 21, 4-(4-(1-Methylquinuclidin-1-ium-4-yl)phenyl)-7-(4-(trifluoromethyl)phenyl)-2-naphthoate], the plasma protein binding entry in data set [6] is reported as “high”.
As to `NCCCNC(=O)c1ccc(-c2cc(C(=O)O)cc(-n3cc(-c4ccc(C(F)(F)F)cc4)nn3)c2)s1` [Compound 23, reference compound], the plasma protein binding entry in data set [6] was “high”. For the same compound, the “effect” value in the data set on ASP/OVA-sensitized mice was “protected”.
Regarding `NC(=O)c1ccc(-c2cc(C(=O)O)cc(-c3cn(-c4ccc(C(F)(F)F)cc4)nn3)c2)cc1` [Compound 24, 4′-Carbamoyl-5-(1-(4-(trifluoromethyl)phenyl)-1H-1,2,3-triazol-4-yl)-[1,1′-biphenyl]-3-carboxylic Acid], the “fold lower hP2Y14R affinity than 22” value on hP2Y14R [8] was 6.2 fold.
Turning to `O=C(O)c1cc(-c2ccc(C3CCNCC3)cc2)cc(-c2cn(-c3ccc(C(F)(F)F)cc3)nn2)c1` [Compound 25, 4′-(Piperidin-4-yl)-5-(1-(4-(trifluoromethyl)phenyl)-1H-1,2,3-triazol-4-yl)-[1,1′-biphenyl]-3-carboxylic Acid], in data set [6], the plasma protein binding entry is “high”. Moreover, the half-inhibitory concentration (IC50) at CB1 cannabinoid receptor and at CB2 cannabinoid receptor was above 10 µM throughout.
For `NCCCNC(=O)c1ccc(-c2cc(C(=O)O)cc(-c3cn(-c4ccc(C(F)(F)F)cc4)nn3)c2)s1` [Compound 26, 3-(5-((3-Aminopropyl)carbamoyl)thiophen-2-yl)-5-(1-(4-(trifluoromethyl)phenyl)-1H-1,2,3-triazol-4-yl)benzoic Acid], the affinity at δ-opioid (DOR) receptor, expressed as Ki, was 2.96 µM.
With `NC(=O)c1ccc(-c2cc(NC(=O)c3ccc(C(F)(F)F)cc3)cc(C(=O)O)c2)cc1` [Compound 27, 4′-Carbamoyl-5-(4-(trifluoromethyl)benzamido)-[1,1′-biphenyl]-3-carboxylic Acid], the “fold lower hP2Y14R affinity than 22” value at hP2Y14R [8] was 11 fold.
For the compound `O=C(O)c1cc(NC(=O)C23C4C5C2C2C3C4C52CO)cc(-c2ccc(C3CCNCC3)cc2)c1` (stereo not drawn) [Compound 28, 5-(4-(Hydroxymethyl)cubane-1-carboxamido)-4′-(piperidin-4-yl)-[1,1′-biphenyl]-3-carboxylic Acid], the IC50 on hP2Y14R [8] (IC50 (μM), Table 1B, cells that print only footnote mark c) is above 100 µM; against hP2Y14R [8] (IC50 at hP2Y14R), above 100 µM.
`O=C(O)c1cc(-c2ccc(C3CCNCC3)cc2)c2nc(-c3ccc(C(F)(F)F)cc3)[nH]c2c1` [Compound 35, 4-(4-(Piperidin-4-yl)phenyl)-2-(4-(trifluoromethyl)phenyl)-1H-benzo[d]imidazole-6-carboxylic Acid] gave an IC50 on hP2Y14R [8] (IC50 at hP2Y14R) above 100 µM.
